This data set can be described thus: in vitro. The settings on record: human, hela cells, % viability.

The structures appear in SMILES notation.

Usually viability stands for a read-out of living cells in per cent, often relative to untreated cells.

On to `O=C(CCn1c(C(F)(F)F)cc2cccnc21)NCc1cccnc1` [CBK284865], for which the viability at 28.5 h, 10 µM was 106%.
The value for `O=C(COc1ccc(S(=O)(=O)N2CCCCC2)cc1)NCc1ccncc1` [CBK269053] was 92.5%.
With `COc1ccc(CCNc2oc(COc3ccccc3)nc2C#N)cc1` [CBK074469], the viability at 28.5 h, 10 µM came out at 90.2%.
Take `COc1cc(/C=C(/C#N)c2ccc(C(=O)O)cc2)c([N+](=O)[O-])cc1OCc1ccccc1` [CBK268738]: the viability at 28.5 h, 10 µM is 92%.
Then `O=c1cnn([C@H]2C[C@@H](O)[C@@H](CO)O2)c(=O)[nH]1` [CBK201162], with 93.4%; and `COc1ccc(CNC(=O)[C@H]2C=CCN2C(=O)C2CC2)cc1` [CBK282326], with 109%; and `CCOc1ccc(NC(=O)CSc2nc3nc(C)cc(C)n3n2)cc1` [CBK268278], with 107%.
The value for `Cn1cc(CCNC(=O)Nc2ccc(N3CCCCC3)nc2)cn1` [CBK305656] was 95.2%; that for `COc1ccc(-c2cccc(Nc3cccnc3)n2)cc1OC` [CBK037644] was 94.6%; that for `Nc1nc(SCc2nnc(S)n2-c2ccccc2)nc2sc3c(c12)CCC3` [CBK301216K] was 83.1%.
Consider `CC(C)NCC(O)COCc1ccc(Cl)cc1` (centres unmarked) [CBK261406C], for which the viability at 28.5 h, 10 µM amounted to 108%.
On to `COc1ccc2c(c1)nc1n2CCC1O` (centres unmarked) [CBK115449], for which the viability at 28.5 h, 10 µM came out at 96.9%.
For the compound `CCS(=O)(=O)c1ccc(O)c(NS(=O)(=O)c2cc(C(=O)O)ccc2Cl)c1` [CBK297531], the viability at 28.5 h, 10 µM was 91.1%.
The value for `CC(=O)c1ccc(NC(=O)COn2nnc3ccc([N+](=O)[O-])cc32)cc1` [CBK266980] was 101%; that for `O=C(NC(c1ccc(F)cc1)c1ccc2ccccc2n1)C1CCN(CCCN2CCOCC2)CC1` (centres unmarked) [CBK148118] was 91.8%; that for `O=C(NCc1ccc(Cl)cc1)N1CCN(c2ccccc2)CC1` [CBK155193] was 97.9%.
Then `c1cncc(COc2cncc(N3CCCC3)n2)c1` [CBK115892], with 88.4%; and `CC1=C(C(=O)OCC(C)C)C(c2ccc(C)cc2)N2C(=O)C(C)SC2=N1` (centres unmarked) [CBK091646], with 92.8%.
`C[C@H](c1ccccc1)n1c(=O)[nH]c2ncc(-c3cncc4ccccc34)nc21` [CBK064709]: the viability at 28.5 h, 10 µM turned out to be 90.4%.
The value for `CN1CCN(CCCCOc2ccc(Cc3ccccc3)cc2)CC1` [CBK269692C] was 91.6%; that for `CN(CC1(C)COC1)C(=O)C1CC(=O)N(C(C)(C)C)C1` (centres unmarked) [CBK281724] was 112%; that for `Cc1cc(C(=O)Nc2cc(F)c(N3CCCC3)c(F)c2)c(C)n1C1CC1` [CBK306226] was 102%.
The value for `CCOc1ccccc1C(=O)Nc1cc(C)c2c(=O)oc3ccccc3c2n1` [CBK291240] was 87.4%.
The value for `CC(C)(CN)c1ccccc1` [CBK012106C] was 81.6%; that for `O=C(Nc1cccc(-c2noc(CCc3ccccc3)n2)c1)c1cccs1` [CBK270225] was 87.4%; that for `O=C(CCn1ncc2ccccc21)N1CCC(c2ccncc2)CC1` [CBK282395] was 82%.
`O=c1c2ccsc2ncn1Cc1nnc(-c2ccc(Br)o2)o1` [CBK295642]: the viability at 28.5 h, 10 µM stood at 88.7%.
The value for `Cc1[nH]nc(-c2ccc(OCc3cnn(-c4ccccc4)c3)cc2O)c1Oc1ccc(Cl)cc1` [CBK264939] was 86.8%; that for `O=C(O)c1cc(NC(=O)c2cccc(N3C(=O)c4ccc([N+](=O)[O-])cc4C3=O)c2)cc(C(=O)O)c1` [CBK261394] was 90.5%.
The value for `O=C(NCc1cccnc1)C(=O)Nc1cc2c3c(c1)CCC(=O)N3CCC2` [CBK287728] was 92%; that for `Cc1cc(I)ccc1NC(=O)CN(c1ccccc1)S(=O)(=O)c1ccccc1[N+](=O)[O-]` [CBK265954] was 78.6%; that for `CCOC(=O)c1[nH]c(C)c(C(=O)N/N=C/c2ccc(-c3ccc(Cl)cc3)o2)c1C` [CBK262503] was 95%.
Then `Cc1ccc(S(=O)(=O)CC(=O)N2CCCC3(CCN(C(=O)Cc4c[nH]c5ccccc45)C3)C2)cc1` (centres unmarked) [CBK131595], with 90.4%.
`CCc1nc(C(C)NCC(=O)Nc2cc(C)nn2C)cs1` (centres unmarked) [CBK305118]: the viability at 28.5 h, 10 µM turned out to be 97.8%.
The value for `CCC(CC)C(=O)N(C)c1c(C)nc2ccc(C(=O)NCc3ccc(OC)cc3)cn12` [CBK146501] was 97.9%.
The value for `Cc1cc(=O)n2c(C(=O)Nc3ccc(C(=O)O)cc3)c(C(=O)Nc3cccc(C)c3C)sc2n1` [CBK297547] was 89.5%; that for `Cc1nc(CCN2CCN(c3ccc4nccn4n3)CC2)cs1` [CBK306932] was 95.6%; that for `COc1ccc(NC(=O)CSc2nnc(N)s2)cc1` [CBK058635] was 104%.
The value for `Cc1ccc(NC(=O)CN2C(=O)c3ccccc3C2=O)c(O)c1` [CBK270028] was 88.2%; that for `Cc1ccccc1C(=O)Nc1cccc(NC(=S)NC(=O)c2cccs2)c1` [CBK263895] was 93.1%.
For `COc1ccc2c(ccn2S(=O)(=O)c2ccc(N3CCNCC3)c(C(F)(F)F)c2)c1` [CBK034033C], the viability at 28.5 h, 10 µM is 89.3%.
Then `CN1CCN(NC(=O)COc2ccc(Br)cc2Cl)CC1` [CBK268174], with 92.6%.
Then `CC(C)(C)c1ccc(S(=O)(=O)N2CCCC[C@H]2CCOC(=O)/C=C\C(=O)O)cc1` [CBK200069], with 89.6%; and `COCCNC(=O)CN(C)c1nc2ccccc2[nH]1` [CBK306378], with 84.6%.
Then `Oc1ccc(Cn2ccnc2)c2cccnc12` [CBK291102], with 89.3%; and `COc1cccc(NC(=O)O[C@@H]2CC[C@]3(C)C(CC[C@H]4OC(=O)C[C@H]43)[C@]2(C)CO)c1` (some centres unmarked) [CBK289576], with 95.2%.
In the case of `O=C(NCc1ccc(OC(F)(F)F)cc1)c1cnoc1-c1ccc(Br)cc1` [CBK154885], the viability at 28.5 h, 10 µM was found to be 100%.
The value for `CC(C)C(C(=O)O)N1C(=O)C2C3C=CC(C3)C2C1=O` (centres unmarked) [CBK286535] was 84%; that for `CCN1CCN(C(=O)c2csnn2)CC1` [CBK200376] was 92.5%.
For the compound `O=C(NCCCN1CCOCC1)C1CCCN1S(=O)(=O)c1ccc(Cl)cc1` (centres unmarked) [CBK269944], the viability at 28.5 h, 10 µM was 92.1%.
Turning to `CC(=O)N1C[C@@H](c2ccsc2)[C@@H]2CN(CC3CCCCC3)CC[C@@H]21` [CBK284587], the viability at 28.5 h, 10 µM was found to be 93%.
Take `O=C(NCCOc1ccccc1)N1CCN(Cc2ccccc2)CC1` [CBK155652]: the viability at 28.5 h, 10 µM stood at 93.3%.
The value for `CC(=O)Nc1c(O)nc(SCC(=O)Nc2ccc(Cl)cc2)[nH]c1=O` [CBK266214] was 106%; that for `COc1cc2c(cc1CN1CCOCC1CC(=O)O)CCC2` (centres unmarked) [CBK307277] was 102%; that for `O=C(NCc1cccs1)c1ccc(-c2ccoc2)nc1` [CBK156269] was 106%.
Consider `NCCCc1c(-c2ccc(Cl)cc2Cl)[nH][nH]c1=O` [CBK288367], for which the viability at 28.5 h, 10 µM is 86.8%.
With `CC1(Cn2ccnc2-c2ccccc2C(=O)O)CCCO1` (centres unmarked) [CBK307439], the viability at 28.5 h, 10 µM worked out at 88.8%.
Then `CCn1ncc2c(C(=O)NC(C)COC)cc(-c3cccs3)nc21` (centres unmarked) [CBK304955], with 87.1%.
Then `CC(C)[C@H](CO)Nc1cncc(-c2ccccc2CO)n1` [CBK065326], with 88.6%; and `O=C(O)CCSc1nnc(-c2cccc(Br)c2)o1` [CBK286540], with 82.8%.
The value for `O=C(O)C1CC(C(=O)O)C(C(=O)O)CC1C(=O)O` (centres unmarked) [CBK261332] was 89.4%.
On to `Cc1ccc(C(=O)N2CCC3(CC2)CC(=O)c2cc(Br)ccc2O3)cc1C` [CBK162264], for which the viability at 28.5 h, 10 µM was found to be 105%.
The value for `Cn1cc(-c2nccnc2OC2CCCCC2)cn1` [CBK107072] was 99.7%; that for `O=C(O)c1ccc(COc2ccc(/C=C3\SC(=S)N(Cc4cccnc4)C3=O)cc2Cl)cc1` [CBK264672] was 91.9%.
Take `O=C(NC(=O)N1CCC2(CC1)NCCc1c2[nH]c2ccc(O)cc12)c1ccccc1` [CBK046936]: the viability at 28.5 h, 10 µM was determined as 87.4%.
Regarding `O=C(NCc1ccccc1F)c1cccc(CN2C(=O)CSC2=O)c1` [CBK296730], the viability at 28.5 h, 10 µM came out at 100%.
In the case of `NC(=O)c1ccc2[nH]c(-c3cscn3)nc2c1` [CBK017800], the viability at 28.5 h, 10 µM worked out at 86%.
Then `COc1ccc(OC)c(CCO)c1` [CBK003033], with 94.4%; and `CC[C@H]1CN(C(=O)Nc2cccc(C(F)(F)F)c2)CC[C@H]1CC(=O)O` [CBK288776], with 89.3%.
The value for `c1ccc2nc(N3CCCC3)c(OC3CCOC3)nc2c1` (centres unmarked) [CBK115769] was 99.4%; that for `O=C(c1ccncc1)N1CCCC(c2cc3ccccc3cn2)C1` (centres unmarked) [CBK285166] was 87%.
Then `O=C(CCCc1c[nH]c2ccccc12)Nc1cccc(C(=O)O)c1` [CBK287175], with 104%; and `Cc1cccc(-c2ccc(CC3(C(=O)NC(C)C)CCN(C(=O)C4CC4)CC3)cc2)c1` [CBK285757], with 93.3%.
`COC(=O)c1ccc(N2CCN(C)CC2)c([N+](=O)[O-])c1` [CBK264341]: the viability at 28.5 h, 10 µM came to 99.4%.
`COc1cccc(-c2n[nH]c3c2C(c2cccnc2)NC3=O)c1` (centres unmarked) [CBK288238]: the viability at 28.5 h, 10 µM was determined as 86.3%.
The value for `CCc1nn2c(=O)cc(CN3CCN(C(=O)c4cccs4)CC3)nc2s1` [CBK306474] was 108%.
Then `Nc1cc2cccnc2c(-c2ccsc2)n1` [CBK081218], with 89.6%; and `CCN1CCN(C(=O)c2nccnc2C(=O)O)CC1` [CBK286718], with 88.8%.
Then `COc1cc2c(cc1-c1cn(CCc3n[nH]c(=O)[nH]3)nn1)CCC2` [CBK307112], with 98.3%.
As for `Cc1noc(C)c1S(=O)(=O)Nc1ccc2[nH]ncc2c1` [CBK062518], the viability at 28.5 h, 10 µM stood at 87.8%.

These data come from publication PMC12040169 (PLOS Biology, 2025).
